Laboratory results published in paper PMC7146870, “VanZ Reduces the Binding of Lipoglycopeptide Antibiotics to Staphylococcus aureus and Streptococcus pneumoniae Cells” (Frontiers in Microbiology, 2020).
≈ marks a conversion by molar mass, not a printed value. Read-outs that look alike come from different tables or passages of the source.

Tests used:
S. pneumoniae R6 ΔvanZ = assay: MIC, broth microdilution, vanZ knockout; assay type: cell-based, Streptococcus pneumoniae
Source text: (§1) Strain Sp539 (ΔvanZ) was constructed using a Sweet Janus cassette-based two-step negative selection strategy ([Sung et al., 2001]; [Li et al., 2014]). The Sweet Janus cassette contains the kanamycin resistance gene, the recessive rpsL gene and the sacB gene, which confers sucrose sensitivity (Su^S), as counterselectable markers. In the first step, 1000 bp fragments corresponding to the upstream and downstream flanking regions of the vanZ gene (spr0050) were amplified from the wild-type chromosomal DNA with the primer pairs KB60/KB61 and KB62/KB63, respectively. The Sweet Janus cassette (2807 bp) amplified from the Sweet Janus cassette DNA fragment with the primers DP1/DP2 was attached to the regions flanking vanZ by fusion PCR using primers KB60 and KB63. The resulting PCR fragment was used for the transformation of the S. pneumoniae R6 strain, and Kan^R/Su^S transformants (Sp537, vanZ:kan sacB) were selected. The PCR fragments consisting of the upstream and downstream flanking regions of the vanZ gene were amplified by the KB60/KB65 and KB64/KB63 primer pairs, respectively, and fused by overlap extension using primers KB60/KB63. The resulting fragment was transformed into the Sp537 strain to obtain Sp539 (Su^R/Kan^S). To complement the vanZ deletion, we constructed strain Sp635 (Su^R/Kan^S; ΔvanZ:vanZ) by transforming strain Sp537 (Kan^R/Su^S) with the PCR fragment amplified with the primers KB60 and KB63 that contained wild-type loci using R6 chromosomal DNA as a template.
(§2) Minimal Inhibitory Concentrations were measured by the broth microdilution method according to ISO standard 20776-1 (EUCAST 2019). S. aureus strains with pRMC2, pRMC2:vanZTei and pRMC2:vanZg plasmids were cultured in the presence of 25 μg/ml chloramphenicol and 100 ng/ml AnhTet (Sigma-Aldrich, Germany) to induce vanZ gene expression. All measurements were performed twice in triplicate. S. aureus ATCC29213 was used as a control. MIC values of clinically accepted glycopeptide antibiotics were interpreted according to EUCAST clinical breakpoints (EUCAST, 2019).

[1] = system: S. aureus RN4220 pRMC2:vanZTei; assay: MIC, broth microdilution, strain expressing vanZTei; assay type: cell-based, Staphylococcus aureus; settings: for MIC: S. aureus RN4220 vanZTei, broth microdilution, ISO 20776-1, 25 μg/ml chloramphenicol and 100 ng/ml AnhTet, twice in triplicate; for decrease of susceptibility of S. aureus by expression of vanZTei: MIC of RN4220 vanZTei versus RN4220 pRMC2
Source text: (§3) The vanZTei and vanZg genes and their ribosome binding sites were amplified from the plasmid pAT398 ([Arthur et al., 1995]) and E. faecium Aus0004 chromosomal DNA, respectively, using the primers TecVanZ_SacI_F, TecVanZ_R, gVanZ_SacI_F, and gVanZ_R (Supplementary Table S1). The PCR products were cloned into the pRMC2 shuttle vector under the control of the anhydrotetracycline (AnhTet)-inducible promoter Pxyl/tetO using SacI and EcoRI restriction sites, resulting in the constructs pRMC2:vanZTei and pRMC2:vanZg. The constructs were confirmed by sequencing and then electroporated into S. aureus RN4220. Using the same procedure, we prepared the constructs pRMC2:vanZTei-His and pRMC2:vanZg-His encoding C-terminal His-tagged VanZ variants. However, primers TecVanZhis_R and gVanZhis_R replaced the reverse primers TecVanZ_R and gVanZ_R.
as §2

S. aureus RN4220 pRMC2 = assay: MIC, broth microdilution, empty vector strain; assay type: cell-based, Staphylococcus aureus; settings: ISO 20776-1, 25 μg/ml chloramphenicol and 100 ng/ml AnhTet, twice in triplicate
Source text: as §3, §2

S. aureus ATCC29213 = assay: MIC, broth microdilution, control strain; assay type: cell-based, Staphylococcus aureus; settings: ISO 20776-1 (EUCAST 2019), performed twice in triplicate
Method: as §2

S. pneumoniae R6 = assay: MIC, broth microdilution, wild type; assay type: cell-based, Streptococcus pneumoniae; settings: ISO 20776-1, twice in triplicate
Method: as §2

[2] = system: S. pneumoniae R6 ΔvanZ:vanZ; assay: MIC, broth microdilution, vanZ-reverted strain; assay type: cell-based, Streptococcus pneumoniae
Source text: as §1, §2

[3] = system: S. aureus RN4220 pRMC2:vanZg; assay: MIC, broth microdilution, strain expressing vanZg; assay type: cell-based, Staphylococcus aureus; settings: for MIC: S. aureus RN4220 vanZg, broth microdilution, ISO 20776-1, 25 μg/ml chloramphenicol and 100 ng/ml AnhTet, twice in triplicate; for decrease of susceptibility of S. aureus by expression of vanZg: MIC of RN4220 vanZg versus RN4220 pRMC2
Source text: as §3, §2

[4] = Staphylococcus aureus, read-out: MIC
[5] = Staphylococcus aureus, RN4220PRMC2, S. aureus RN4220 pRMC2 (no VanZ), read-out: MIC
[6] = Staphylococcus aureus, ATCC29213, S. aureus ATCC 29213 (control), read-out: MIC
[7] = Streptococcus pneumoniae, read-out: MIC
[8] = S. pneumoniae R6 ΔvanZ, broth microdilution, ISO 20776-1, twice in triplicate
[9] = S. pneumoniae R6 ΔvanZ:vanZ (complemented), broth microdilution, ISO 20776-1, twice in triplicate
[10] = S. aureus RN4220 pRMC2 (no VanZ)

Compound	MIC (S. pneumoniae R6 ΔvanZ; Streptococcus pneumoniae) [µg/mL]	MIC [1, 4] [µg/mL]	MIC (S. aureus RN4220 pRMC2; [5]) [µg/mL]	MIC (S. aureus ATCC29213; [6]) [µg/mL]	MIC (S. pneumoniae R6; [7]) [µg/mL]	MIC ([2]; Streptococcus pneumoniae) [µg/mL]	MIC [3, 4] [µg/mL]	MIC (S. pneumoniae R6 ΔvanZ; [8]) [µg/mL]	decrease of susceptibility of S. aureus by expression of vanZTei [1]	MIC (S. aureus ATCC29213; S. aureus ATCC 29213 (control)) [µg/mL]	MIC (S. pneumoniae R6) [µg/mL]	decrease of susceptibility of S. aureus by expression of vanZg [3]	MIC [3] [µg/mL]	MIC [2, 9] [µg/mL]	MIC [1] [µg/mL]	MIC (S. aureus RN4220 pRMC2; [10]) [µg/mL]	sensitivity of the ΔvanZ mutant compared with the wild-type strain (S. pneumoniae R6 ΔvanZ; MIC of S. pneumoniae R6 ΔvanZ versus R6)
CC1(C)S[C@@H]2[C@H](NC(=O)C(C(=O)O)c3ccccc3)C(=O)N2[C@H]1C(=O)O (some centres unmarked) [CARB, carbenicillin]	0.0625 (≈ 0.165 µM)	0.25 (≈ 0.661 µM)	0.25 (≈ 0.661 µM)	0.25 (≈ 0.661 µM)	0.0625 (≈ 0.165 µM)	0.0625 (≈ 0.165 µM)	0.25 (≈ 0.661 µM)	–	–	–	–	–	–	–	–	–	–
CC[C@H]1OC(=O)[C@H](C)[C@@H](O[C@H]2C[C@@](C)(OC)[C@@H](O)[C@H](C)O2)[C@H](C)[C@@H](O[C@@H]2O[C@H](C)C[C@H](N(C)C)[C@H]2O)[C@](C)(O)C[C@@H](C)C(=O)[C@H](C)[C@@H](O)[C@]1(C)O [ERY, erythromycin]	0.125 (≈ 0.17 µM)	0.125 (≈ 0.17 µM)	0.125 (≈ 0.17 µM)	0.125 (≈ 0.17 µM)	0.125 (≈ 0.17 µM)	0.125 (≈ 0.17 µM)	0.125 (≈ 0.17 µM)	–	–	–	–	–	–	–	–	–	–
CNC(C)C1CCC(N)C(OC2C(N)CC(N)C(OC3OCC(C)(O)C(NC)C3O)C2O)O1 (centres unmarked) [GEN, gentamicin]	0.25 (≈ 0.523 µM)	1 (≈ 2.09 µM)	1 (≈ 2.09 µM)	1 (≈ 2.09 µM)	0.25 (≈ 0.523 µM)	0.25 (≈ 0.523 µM)	1 (≈ 2.09 µM)	–	–	–	–	–	–	–	–	–	–
dalbavancin	–	–	–	–	–	–	–	0.0078	less or no activity	0.125	0.03125	four-fold	0.5	–	–	–	–
oritavancin	–	–	–	–	–	–	–	0.0039	less or no activity	0.125	0.0078	two times	0.25	0.0078	–	–	–
teicoplanin	–	–	–	–	–	–	–	0.03125	less or no activity	0.125	0.125	16 fold	8	–	1	0.5	–
vancomycin	–	–	–	–	–	–	–	0.25	–	0.25	0.25	–	1	0.25	0.5	0.5	not
